Measured values published in paper PMC12112332, “Characterization of Novel and Known Activators of Cannabinoid Receptor Subtype 2 Reveals Mixed Pharmacology That Differentiates Mycophenolate Mofetil and GW-842,166X from MDA7” (International Journal of Molecular Sciences, 2025).
Like-named read-outs stand apart in the source and are kept apart here.

Legend:
rat CB2 = molecular target: T1, rat CB2 (Rattus norvegicus, UniProt Q9QZN9); assay: [3H]CP55,940 radioligand competition binding, membranes of HEK/GIRK cells expressing rat CB2; parameters: expressed in transfected cells; host or cells: HEK293 cells stably co-expressing GIRK1/2 channels; conditions: for rCB2 Binding Affinity pKi ± SEM: 0.5 nM [3H]CP55,940, equilibrium; for rCB2 Binding % Max ± SEM: % of specific [3H]CP55,940 binding
T1 sequence (Q9QZN9 1-360): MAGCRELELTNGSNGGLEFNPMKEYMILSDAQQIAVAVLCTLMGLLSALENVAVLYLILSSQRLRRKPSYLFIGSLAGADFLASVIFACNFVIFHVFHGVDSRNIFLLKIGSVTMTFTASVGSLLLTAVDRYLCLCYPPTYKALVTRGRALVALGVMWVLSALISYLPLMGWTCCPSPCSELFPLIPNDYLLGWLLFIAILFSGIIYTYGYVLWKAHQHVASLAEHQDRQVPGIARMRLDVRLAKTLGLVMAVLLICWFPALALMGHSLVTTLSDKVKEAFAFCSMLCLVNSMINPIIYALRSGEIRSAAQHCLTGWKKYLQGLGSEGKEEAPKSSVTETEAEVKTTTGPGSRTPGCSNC
From the text: Agonists that bind to the receptor at the site occupied by the endogenous ligand (2-AG in this case) are considered orthosteric agonists. It is also possible for an agonist to bind and activate a receptor via a site other than the orthosteric site; these ligands are classified as allosteric agonists. To characterize the nature of the agonist activity of mycophenolate mofetil, we tested its ability to bind to the receptor in equilibrium binding assays using membranes harvested from cells expressing rCB2 using the radioligand [^3H]CP55,940 [40, 60]. CP55,940 has an affinity for both CB1 and CB2 receptors in the low nM range and is reported to bind to the site occupied by 2-AG [61].
Competition binding concentration–response curves were obtained in the presence of 0.5 nM [^3H]CP55,940 using membranes harvested from HEK/GIRK cells expressing rCB2. Data represent the mean ± SEM of three independent experiments run in triplicate. Data are plotted as a percentage of specific [^3H]CP55,940 binding. Non-specific binding was determined in the presence of 10 µM CP55,940.
Membranes were made from HEK/GIRK cells stably expressing rat CB2. Radioligand competition binding assays were performed as previously described, with minor modifications. In brief, compounds were serially diluted into assay buffer with 0.1% bovine serum albumin (BSA) and added to each well of a 96-well plate, along with 20 μg/well cell membrane and approximately 500 pM [^3H]-CP55,940 (specific activity = 104 Ci/mmol, PerkinElmer, Waltham, MA, USA). Following a 3-h incubation period on a shaker at room temperature, membrane-bound ligand was separated from free ligand by filtration through glass fiber 96-well filter plates (Unifilter-96, GF/B; PerkinElmer, Waltham, MA, USA). Forty microliters of scintillation fluid were added to each well, and membrane-bound radioactivity was determined by scintillation counting (Microbeta2; Revvity, Waltham, MA, USA). Nonspecific binding was determined using 10 μM of cold CP55,940.

rCB1 = molecular target: T2, rCB1 (Rattus norvegicus, UniProt P20272); assay: Thallium flux assay in HEK/GIRK cells expressing rCB1; type: cell-based; conditions: for rCB1 GIRK (−) 2-AG % Max ± SEM / rCB1 GIRK (+) 2-AG % Max ± SEM: % of maximal 2-AG response
T2 construct: expressed in transfected cells; host or cells: HEK293 cells stably co-expressing GIRK channels
T2 sequence (P20272 whole entry): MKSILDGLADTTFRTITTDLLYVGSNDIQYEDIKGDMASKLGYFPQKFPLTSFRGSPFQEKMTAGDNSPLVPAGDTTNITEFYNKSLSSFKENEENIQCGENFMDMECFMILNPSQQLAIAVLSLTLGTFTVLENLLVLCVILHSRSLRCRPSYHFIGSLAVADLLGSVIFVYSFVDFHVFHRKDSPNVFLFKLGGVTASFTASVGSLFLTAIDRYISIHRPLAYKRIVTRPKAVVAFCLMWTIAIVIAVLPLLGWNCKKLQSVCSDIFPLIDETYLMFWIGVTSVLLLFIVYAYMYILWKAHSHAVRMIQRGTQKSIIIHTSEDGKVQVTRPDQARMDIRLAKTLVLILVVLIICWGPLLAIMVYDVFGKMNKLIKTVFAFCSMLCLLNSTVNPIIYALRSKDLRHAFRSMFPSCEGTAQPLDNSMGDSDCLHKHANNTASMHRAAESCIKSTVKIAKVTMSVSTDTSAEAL
Description: The cell lines used in this manuscript were generated in-house. Their preparation is described in detail in Qi et al.. Cells were used for 10 passages for experiments and day-to-day signals in both the CB2 and CB1 lines were stable across this passage number. Human Embryonic Kidney (HEK) 293 cells stably expressing rCB2 and the G protein Gqi9 were maintained in Dulbecco’s modified Eagle media (DMEM) containing 10% FBS, 1× antibiotic/antimycotic, 20 mM HEPES, 1 mM sodium pyruvate, 2 mM L-glutamine, 1× non-essential amino acids, 700 µg/mL G418 sulfate, and 0.6 µg/mL puromycin. HEK cells stably expressing rCB2 or rCB1 and the G protein inwardly rectifying potassium channel (GIRK) were maintained in DMEM/F12 containing 10% FBS, 1× antibiotic/antimycotic, 20 mM HEPES, 1 mM sodium pyruvate, 2 mM L-glutamine, 1× non-essential amino acids, 700 µg/mL G418 sulfate, and 0.6 µg/mL puromycin. Cells were monitored by periodic PCR detection using the LookOut Mycoplasma PCR Detection Kit (Sigma-Aldrich, St Louis, MO, USA) to eliminate potential mycoplasma infection. Reagents were obtained from Invitrogen (Waltham, MA, USA) unless otherwise noted.
Thallium flux assays were performed as previously described in Niswender et al., 2008 [31]. HEK/GIRK cells stably expressing rCB1 or rCB2 (15,000 cells/20 µL/well) were seeded in 384-well, poly-D-lysine coated assay plates (Corning BioCoat®) (Corning Inc., Corning, NY, USA) and incubated overnight at 37 °C in the presence of 5% CO2. The next day, the medium was removed and replaced with 20 μL of 1.2 µM thallium-sensitive dye Thallos-AM (ION biosciences, San Marcos, TX, USA), prepared as a DMSO stock solution mixed in a 1:1 ratio with 10% (w/v) pluronic acid F-127, and diluted in assay buffer (Hank’s balanced salt solution, 20 mM HEPES, pH 7.4). Following 1 h at room temperature, the dye solution was removed and replaced with 20 µL assay buffer. For screening of the FDA-Approved Drug Collection, 10 mM DMSO stocks of library compounds were transferred to daughter plates using an Echo acoustic plate reformatter (Labcyte, Sunnyvale, CA, USA) and diluted in assay buffer to a 2× final concentration. For concentration–response curve experiments, compounds were serially diluted 1:3 into 10-point concentration–response curves in DMSO, transferred to daughter plates using the Echo or Bravo Automated Liquid Handling Platform (Agilent Technologies, Santa Clara, CA, USA), and diluted in assay buffer to a 2× final concentration. Thallium flux was measured using the Hamamatsu FDSS/μCELL Kinetic Plate Imager (Bridgewater, NJ, USA). After the establishment of a fluorescence baseline (excitation, 480 ± 20 nm; emission, 540 ± 30 nm), 20 µL (2×) of test compound was added to the cells at 1 s and the response was measured. After 140 s, 10 µL (5×) of an EC20 concentration of agonist (PAM mode) or vehicle (AGO mode) in thallium stimulus buffer (125 mM NaHCO3, 1.8 mM CaSO4, 1 mM MgSO4, 5 mM glucose, 12 mM Tl2SO4, 10 mM HEPES, 0.5% BSA, pH 7.4) was added to the cells, and the response of the cells was measured for an additional 159 s (data were acquired for 300 s total at 0.5 Hz for 140 s and 1 Hz for 160 s). Raw kinetic data were analyzed in a multi-step process: (1) Fluorescence readings for each time point in a well were divided by the fluorescence reading at the initial time point to account for differences in cell number, non-uniform illumination, and dye-loading. (2) The slope value for each kinetic trace was calculated for the time window of 145–155 s, a window occurring directly after the second addition. (3) The average slope was calculated for wells containing vehicle and this value was subtracted from all wells. (4) The vehicle-subtracted slope was normalized to the relevant maximal agonist signal for each assay. […]

| Compound | EC50 (rat CB2) [nM] | rCB2 Binding Affinity pKi ± SEM (rat CB2) | rCB2 Binding % Max ± SEM (rat CB2; 0.5 nM [3H]CP55,940) [%] | rCB1 GIRK (−) 2-AG pEC50 ± SEM (rCB1; absence of 2-AG) | rCB1 GIRK (+) 2-AG pEC50 ± SEM (rCB1; presence of EC20 2-AG) | Ki (rat CB2) [nM] | rCB1 GIRK (−) 2-AG % Max ± SEM (rCB1; absence of 2-AG) [%] | rCB1 GIRK (+) 2-AG % Max ± SEM (rCB1; presence of EC20 2-AG) [%] | EC50 (rCB1; rCB1 GIRK EC50 in absence of 2-AG, absence of 2-AG) [nM] | EC50 (rCB1; rCB1 GIRK EC50 in presence of 2-AG, presence of EC20 2-AG) [nM] | EC50 (rat CB2; 0.5 nM [3H]CP55,940, tested up to 30 µM, read-out: rCB2 Binding pEC50 (incomplete displacement) (converted)) [nM] | EC50 (rCB1; presence of EC20 2-AG, read-out: rCB1 GIRK (+) 2-AG pEC50 ± SEM (converted)) [nM] |
| --- | --- | --- | --- | --- | --- | --- | --- | --- | --- | --- | --- | --- |
| O=C(NCC1CCOCC1)c1cnc(Nc2ccc(Cl)cc2Cl)nc1C(F)(F)F [GW-842,166X, 2-(2,4-dichloroanilino)-N-(oxan-4-ylmethyl)-4-(trifluoromethyl)pyrimidine-5-carboxamide] | > 10000 | Incomplete | 22 ± 2 | Inactive | Inactive | – | – | – | – | – | – | – |
| CC1(Cc2ccccc2)COc2cc(C(=O)N3CCCCC3)ccc21 (centres unmarked) [MDA7, 1-[(3-benzyl-3-methyl-2,3-dihydro-1-benzofuran-6-yl)carbonyl]piperidine] | – | – | 5.3 ± 1.7 | – | – | 251 | 50 ± 2 | 48 ± 2 | 477 | 395 | – | – |
| COc1c(C)c2c(c(O)c1C/C=C(\C)CCC(=O)OCCN1CCOCC1)C(=O)OC2 [Mycophenolate mofetil] | – | Incomplete | 20 ± 1 | < 5.0 | < 5.0 | – | −15 ± 3 | −5.5 ± 1.1 | – | – | > 10000 | > 10000 |
| COc1c(C)c2c(c(O)c1C/C=C(\C)CCC(=O)O)C(=O)OC2 [Mycophenolic acid] | – | – | – | – | Inactive | – | – | – | – | – | – | – |
